Measured values published in patent US20070027150A1 (priority 2005, published 2007).

Biological target: His-tagged N-terminal ATP binding domain (amino acid residues 9-236) of HSP90α (Homo sapiens, UniProt P07900)
Assay: HSP90 inhibitor binding potency: TRF competition binding assay
Settings: Table I; read-out: Hsp90 IC50 Range
In short: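 Competition against biotinylated radicicol for binding to the His-tagged 9-236 ATP domain of HSP90α: 2 h, room temperature, HEPES/MgCl2/KCl/BSA buffer. Streptavidin capture, then europium-labeled anti-His antibody and enhancement solution; europium counts give IC50.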

IC50	SMILES
1 to 10 µM	CC(=O)Nc1ccccc1-c1ccccc1C1CC(=O)c2c(C)nc(N)nc2C1 (stereo not shown) [Compound 103, N-[2′-(2-amino-4-methyl-5-oxo-5,6,7,8-tetrahydroquinazolin-7-yl)-1,1′-biphenyl-2-yl]acetamide]
> 10 µM	COC(=O)c1cccc(-c2ccccc2C2CC(=O)c3c(C)nc(N)nc3C2)c1 (stereo not shown) [Compound 104, methyl 2′-(2-amino-4-methyl-5-oxo-5,6,7,8-tetrahydroquinazolin-7-yl)-1,1′-biphenyl-3-carboxylate]
< 1 µM	COc1cccc(-c2ccccc2CO)c1C1CC(=O)c2c(C)nc(N)nc2C1 (stereo not shown) [Compound 105, 2-amino-7-[2′-(hydroxymethyl)-3-methoxy-1,1′-biphenyl-2-yl]-4-methyl-7,8-dihydroquinazolin-5(6H)-one]
< 1 µM	COc1cccc(-c2ccccc2CO)c1C1CC(=O)c2c(C)nc(N)nc2C1 (stereo not shown) [Compound 106, 2-amino-7-[2′-(hydroxymethyl)-3-methoxy-1,1′-biphenyl-2-yl]-4-methyl-7,8-dihydroquinazolin-5(6H)-one]
1 to 10 µM	COc1ccc(-c2ccccc2C2CC(=O)c3c(C)nc(N)nc3C2)c(OC)c1 (stereo not shown) [Compound 107, 2-amino-7-(2′,4′-dimethoxy-1,1′-biphenyl-2-yl)-4-methyl-7,8-dihydroquinazolin-5(6H)-one]
< 1 µM	COc1ccc(-c2cccnc2Cl)c(C2CC(=O)c3c(C)nc(N)nc3C2)c1 (stereo not shown) [Compound 108, 2-amino-7-[2-(2-chloropyridin-3-yl)-5-methoxyphenyl]-4-methyl-7,8-dihydroquinazolin-5(6H)-one]
< 1 µM	Cc1nc(N)nc2c1C(=O)CC(c1ccccc1-c1ccccc1C(F)(F)F)C2 (stereo not shown) [Compound 109, 2-amino-4-methyl-7-[2′-(trifluoromethyl)-1,1′-biphenyl-2-yl]-7,8-dihydroquinazolin-5(6H)-one]
1 to 10 µM	Cc1nc(N)nc2c1C(=O)CC(c1ccccc1-c1cccc(C(F)(F)F)c1)C2 (stereo not shown) [Compound 110, 2-amino-4-methyl-7-[3′-(trifluoromethyl)-1,1′-biphenyl-2-yl]-7,8-dihydroquinazolin-5(6H)-one]
< 1 µM	Cc1nc(N)nc2c1C(=O)CC(c1ccccc1-c1ccccc1OC(F)(F)F)C2 (stereo not shown) [Compound 111, 2-amino-4-methyl-7-[2′-(trifluoromethoxy)-1,1′-biphenyl-2-yl]-7,8-dihydroquinazolin-5(6H)-one]
> 10 µM	Cc1nc(N)nc2c1C(=O)CC(c1ccccc1-c1cccc(OC(F)(F)F)c1)C2 (stereo not shown) [Compound 112, 2-amino-4-methyl-7-[3′-(trifluoromethoxy)-1,1′-biphenyl-2-yl]-7,8-dihydroquinazolin-5(6H)-one]
< 1 µM	Cc1nc(N)nc2c1C(=O)CC(c1ccccc1-c1ccccc1Oc1ccccc1)C2 (stereo not shown) [Compound 113, 2-amino-4-methyl-7-(2′-phenoxy-1,1′-biphenyl-2-yl)-7,8-dihydroquinazolin-5(6H)-one]
1 to 10 µM	Cc1nc(N)nc2c1C(=O)CC(c1ccccc1-c1cccc(NS(C)(=O)=O)c1)C2 (stereo not shown) [Compound 114, N-[2′-(2-amino-4-methyl-5-oxo-5,6,7,8-tetrahydroquinazolin-7-yl)-1,1′-biphenyl-3-yl]methanesulfonamide]
1 to 10 µM	Cc1nc(N)nc2c1C(=O)CC(c1ccccc1-c1cccnn1)C2 (stereo not shown) [Compound 115, 2-amino-4-methyl-7-(2-pyridazin-3-ylphenyl)-7,8-dihydroquinazolin-5(6H)-one]
< 1 µM	Cc1ncccc1-c1ccccc1C1CC(=O)c2c(C)nc(N)nc2C1 (stereo not shown) [Compound 116, 2-amino-4-methyl-7-[2-(2-methylpyridin-3-yl)phenyl]-7,8-dihydroquinazolin-5(6H)-one]
< 1 µM	Cc1ccc(-c2ccccc2C2CC(=O)c3c(C)nc(N)nc3C2)nc1 (stereo not shown) [Compound 117, 2-amino-4-methyl-7-[2-(5-methylpyridin-2-yl)phenyl]-7,8-dihydroquinazolin-5(6H)-one]
< 1 µM	Cc1ccnc(-c2ccccc2C2CC(=O)c3c(C)nc(N)nc3C2)c1 (stereo not shown) [Compound 118, 2-amino-4-methyl-7-[2-(4-methylpyridin-2-yl)phenyl]-7,8-dihydroquinazolin-5(6H)-one]
> 10 µM	Cc1cccc(-c2ccccc2C2CC(=O)c3c(C)nc(N)nc3C2)n1 (stereo not shown) [Compound 119, 2-amino-4-methyl-7-[2-(6-methylpyridin-2-yl)phenyl]-7,8-dihydroquinazolin-5(6H)-one]
1 to 10 µM	Cc1cccnc1-c1ccccc1C1CC(=O)c2c(C)nc(N)nc2C1 (stereo not shown) [Compound 120, 2-amino-4-methyl-7-[2-(3-methylpyridin-2-yl)phenyl]-7,8-dihydroquinazolin-5(6H)-one]
> 10 µM	Cc1ccncc1-c1ccccc1C1CC(=O)c2c(C)nc(N)nc2C1 (stereo not shown) [Compound 121, 2-amino-4-methyl-7-[2-(4-methylpyridin-3-yl)phenyl]-7,8-dihydroquinazolin-5(6H)-one]
< 1 µM	Cc1nc(N)nc2c1C(=O)CC(c1ccccc1-c1cccc(F)n1)C2 (stereo not shown) [Compound 122, 2-amino-7-[2-(6-fluoropyridin-2-yl)phenyl]-4-methyl-7,8-dihydroquinazolin-5(6H)-one]

IC50	SMILES
< 1 µM	Cc1nc(N)nc2c1C(=O)CC(c1ccccc1-c1ccc(F)cn1)C2 (stereo not shown) [Compound 123, 2-amino-7-[2-(5-fluoropyridin-2-yl)phenyl]-4-methyl-7,8-dihydroquinazolin-5(6H)-one]
< 1 µM	COc1cccc(-c2ccccc2C2CC(=O)c3c(C)nc(N)nc3C2)n1 (stereo not shown) [Compound 124, 2-amino-7-[2-(6-methoxypyridin-2-yl)phenyl]-4-methyl-7,8-dihydroquinazolin-5(6H)-one]
< 1 µM	COc1ccnc(-c2ccccc2C2CC(=O)c3c(C)nc(N)nc3C2)c1 (stereo not shown) [Compound 125, 2-amino-7-[2-(4-methoxy-pyridin-2-yl)-phenyl]-4-methyl-7,8-dihydro-6H-quinazolin-5-one]
< 1 µM	Cc1cccc(-c2ccccc2C2CC(=O)c3c(C)nc(N)nc3C2)c1F (stereo not shown) [Compound 126, 2-amino-7-(2′-fluoro-3′-methyl-1,1′-biphenyl-2-yl)-4-methyl-7,8-dihydroquinazolin-5(6H)-one]
< 1 µM	COc1cccc(-c2cn(C)nc2C2CC(=O)c3c(C)nc(N)nc3C2)n1 (stereo not shown) [Compound 127, 2-amino-7-[4-(6-methoxy-pyridin-2-yl)-1-methyl-1H-pyrazol-3-yl]-4-methyl-7,8-dihydro-6H-quinazolin-5-one]
< 1 µM	Cc1nc(N)nc2c1C(=O)CC(c1ccccc1-c1cccc3[nH]ccc13)C2 (stereo not shown) [Compound 128, 2-amino-7-[2-(1H-indol-4-yl)phenyl]-4-methyl-7,8-dihydroquinazolin-5(6H)-one]
< 1 µM	Cc1nc(N)nc2c1C(=O)CC(c1ccccc1-c1cccc3cc[nH]c13)C2 (stereo not shown) [Compound 129, 2-amino-7-[2-(1H-indol-7-yl)phenyl]-4-methyl-7,8-dihydroquinazolin-5(6H)-one]
< 1 µM	COc1cccc(-c2cc(F)ccc2C2CC(=O)c3c(C)nc(N)nc3C2)n1 (stereo not shown) [Compound 130, 2-amino-7-[4-fluoro-2-(6-methoxy-pyridin-2-yl)-phenyl]-4-methyl-7,8-dihydro-6H-quinazolin-5-one]
1 to 10 µM	Cc1nc(N)nc2c1C(=O)CC(c1ccccc1-c1cccc3c1NC(=O)C3)C2 (stereo not shown) [Compound 131, 2-amino-4-methyl-7-[2-(2-oxo-2,3-dihydro-1H-indol-7-yl)phenyl]-7,8-dihydroquinazolin-5(6H)-one]
< 1 µM	COc1cccc(-c2cccc(OC)c2C2CC(=O)c3c(C)nc(N)nc3C2)n1 (stereo not shown) [Compound 132, 2-amino-7-[2-methoxy-6-(6-methoxy-pyridin-2-yl)-phenyl]-4-methyl-7,8-dihydro-6H-quinazolin-5-one]
< 1 µM	Cc1nc(N)nc2c1C(=O)CC(c1ccccc1Oc1ccccc1)C2 (stereo not shown) [Compound 133, 2-amino-4-methyl-7-(2-phenoxyphenyl)-7,8-dihydroquinazolin-5(6H)-one]
< 1 µM	Cc1ccccc1Oc1ccccc1C1CC(=O)c2c(C)nc(N)nc2C1 (stereo not shown) [Compound 134, 2-amino-4-methyl-7-[2-(2-methylphenoxy)phenyl]-7,8-dihydroquinazolin-5(6H)-one]
< 1 µM	Cc1cccc(Oc2ccccc2C2CC(=O)c3c(C)nc(N)nc3C2)c1 (stereo not shown) [Compound 135, 2-amino-4-methyl-7-[2-(3-methylphenoxy)phenyl]-7,8-dihydroquinazolin-5(6H)-one]
> 10 µM	Cc1ccc(Oc2ccccc2C2CC(=O)c3c(C)nc(N)nc3C2)cc1 (stereo not shown) [Compound 136, 2-amino-4-methyl-7-[2-(4-methylphenoxy)phenyl]-7,8-dihydroquinazolin-5(6H)-one]
< 1 µM	Cc1nc(N)nc2c1C(=O)CC(c1ccccc1Oc1cccc(F)c1)C2 (stereo not shown) [Compound 137, 2-amino-7-[2-(3-fluorophenoxy)phenyl]-4-methyl-7,8-dihydroquinazolin-5(6H)-one]
< 1 µM	Cc1nc(N)nc2c1C(=O)CC(c1ccccc1Oc1ccccc1F)C2 (stereo not shown) [Compound 138, 2-amino-7-[2-(2-fluorophenoxy)phenyl]-4-methyl-7,8-dihydroquinazolin-5(6H)-one]
1 to 10 µM	Cc1nc(N)nc2c1C(=O)CC(c1ccccc1Oc1ccc(F)cc1)C2 (stereo not shown) [Compound 139, 2-amino-7-[2-(4-fluorophenoxy)phenyl]-4-methyl-7,8-dihydroquinazolin-5(6H)-one]
< 1 µM	Cc1nc(N)nc2c1C(=O)CC(c1ccc(F)cc1Oc1ccccc1)C2 (stereo not shown) [Compound 140, 2-amino-7-(4-fluoro-2-phenoxy-phenyl)-4-methyl-7,8-dihydro-6H-quinazolin-5-one]
< 1 µM	Cc1nc(N)nc2c1C(=O)CC(c1ccccc1Oc1ccccn1)C2 (stereo not shown) [Compound 141, 2-amino-4-methyl-7-[2-(pyridin-2-yloxy)phenyl]-7,8-dihydroquinazolin-5(6H)-one]
< 1 µM	Cc1nc(N)nc2c1C(=O)CC(c1ccccc1Oc1cncnc1)C2 (stereo not shown) [Compound 142, 2-amino-4-methyl-7-[2-(pyrimidin-5-yloxy)phenyl]-7,8-dihydroquinazolin-5(6H)-one]
